Laboratory results: ChEMBL document CHEMBL1201861, “Genomics of Drug Sensitity in Cancer screening data, Wellcome Trust Sanger Institute”

Key:
Assay in all cases: cells
DBTRG-05MG = type: functional, cell-based, Homo sapiens; conditions: Homo sapiens, DBTRG-05MG;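 further: cell viability assay measuring growth inhibition of human DBTRG-05MG cells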
Description: SANGER: Inhibition of human DBTRG-05MG cell growth in a cell viability assay.

Daoy = type: functional, cell-based, Homo sapiens; conditions: Homo sapiens, Daoy;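 further: daoy cell growth inhibition, read out as cell viability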
Description: SANGER: Inhibition of human Daoy cell growth in a cell viability assay.

EPLC-272H = type: functional, cell-based, Homo sapiens; conditions: Homo sapiens, EPLC-272H
Description: SANGER: Inhibition of human EPLC-272H cell growth in a cell viability assay.

EW-22 = type: functional, cell-based, Homo sapiens; conditions: Homo sapiens, EW-22;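 further: growth inhibition of the EW-22 cell line, measured with a cell viability readout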
Description: SANGER: Inhibition of human EW-22 cell growth in a cell viability assay.

GCT = type: functional, cell-based, Homo sapiens; conditions: Homo sapiens, GCT;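 further: GCT cell line proliferation inhibition, read out with a cell viability assay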
Description: SANGER: Inhibition of human GCT cell growth in a cell viability assay.

KYSE-70 cell line = type: functional, cell-based, Homo sapiens; conditions: Homo sapiens, KYSE-70;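 further: cell viability assay read-out, with IC50 expressing suppression of KYSE-70 cell growth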
Description: SANGER: Inhibition of human KYSE-70 cell growth in a cell viability assay.

LK-2 = type: functional, cell-based, Homo sapiens; conditions: Homo sapiens, LK-2;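 further: growth inhibition of LK-2 cells, read out with a viability assay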
Description: SANGER: Inhibition of human LK-2 cell growth in a cell viability assay.

LU-99A = type: functional, cell-based, Homo sapiens; conditions: Homo sapiens, LU-99A;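 further: growth inhibition of LU-99A cells, read out with a cell viability assay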
Description: SANGER: Inhibition of human LU-99A cell growth in a cell viability assay.

M059J = type: functional, cell-based, Homo sapiens; conditions: Homo sapiens, M059J;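 further: growth inhibition of M059J cells, read out with a cell viability assay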
Description: SANGER: Inhibition of human M059J cell growth in a cell viability assay.

NCI-H1793 = type: functional, cell-based, Homo sapiens; conditions: Homo sapiens, NCI-H1793;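 further: cell growth inhibition, read out by a cell viability assay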
Description: SANGER: Inhibition of human NCI-H1793 cell growth in a cell viability assay.

NCI-H460 = type: functional, cell-based, Homo sapiens; conditions: Homo sapiens, NCI-H460;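 further: cell viability assay scoring growth inhibition of human NCI-H460 cells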
Description: SANGER: Inhibition of human NCI-H460 cell growth in a cell viability assay.

NCI-H650 = type: functional, cell-based, Homo sapiens; conditions: Homo sapiens, NCI-H650;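 further: growth inhibition of NCI-H650 cells, read out by a viability assay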
Description: SANGER: Inhibition of human NCI-H650 cell growth in a cell viability assay.

OVCAR-5 = type: functional, cell-based, Homo sapiens; conditions: Homo sapiens, OVCAR-5;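 further: growth inhibition of human OVCAR-5 cells, read out with a cell viability assay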
Description: SANGER: Inhibition of human OVCAR-5 cell growth in a cell viability assay.

PANC-03-27 = type: functional, cell-based, Homo sapiens; conditions: Homo sapiens, PANC-03-27
Description: SANGER: Inhibition of human PANC-03-27 cell growth in a cell viability assay.

RD = type: functional, cell-based, Homo sapiens; conditions: Homo sapiens, RD
Description: SANGER: Inhibition of human RD cell growth in a cell viability assay.

SCC-25 = type: functional, cell-based, Homo sapiens; conditions: Homo sapiens, SCC-25;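 further: growth inhibition of SCC-25 cells, measured with a cell viability assay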
Description: SANGER: Inhibition of human SCC-25 cell growth in a cell viability assay.

SJRH30 = type: functional, cell-based, Homo sapiens; conditions: Homo sapiens, SJRH30;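 further: growth inhibition of human SJRH30 cells, read out with a cell viability assay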
Description: SANGER: Inhibition of human SJRH30 cell growth in a cell viability assay.

SK-N-AS = type: functional, cell-based, Homo sapiens; conditions: Homo sapiens, SK-N-AS;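 further: growth inhibition of human SK-N-AS cells, measured with a cell viability assay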
Description: SANGER: Inhibition of human SK-N-AS cell growth in a cell viability assay.

SKG-IIIa = type: functional, cell-based, Homo sapiens; conditions: Homo sapiens, SKG-IIIa;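 further: cell growth inhibition, read out with a cell viability assay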
Description: SANGER: Inhibition of human SKG-IIIa cell growth in a cell viability assay.

SW1088 = type: functional, cell-based, Homo sapiens; conditions: Homo sapiens, SW1088;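 further: growth inhibition of human SW1088 cells, read out by a cell viability assay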
Description: SANGER: Inhibition of human SW1088 cell growth in a cell viability assay.

SW626 = type: functional, cell-based, Homo sapiens; conditions: Homo sapiens, SW626;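 further: growth inhibition of SW626 cells, measured with a cell viability assay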
Description: SANGER: Inhibition of human SW626 cell growth in a cell viability assay.

SW780 = type: functional, cell-based, Homo sapiens; conditions: Homo sapiens, SW780;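 further: growth inhibition of the cells, read out with a cell viability assay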
Description: SANGER: Inhibition of human SW780 cell growth in a cell viability assay.

T-24 = type: functional, cell-based, Homo sapiens; conditions: Homo sapiens, T-24;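 further: growth inhibition of T-24 cells, read out with a cell viability assay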
Description: SANGER: Inhibition of human T-24 cell growth in a cell viability assay.

A673 = type: functional, cell-based, Homo sapiens; conditions: Homo sapiens, A673;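 further: growth inhibition of human A673 cells, read out through a cell viability assay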
Description: SANGER: Inhibition of human A673 cell growth in a cell viability assay.

AU565 = type: functional, cell-based, Homo sapiens; conditions: Homo sapiens, AU565;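 further: cell viability assay measuring growth inhibition of human AU565 cells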
Description: SANGER: Inhibition of human AU565 cell growth in a cell viability assay.

BT-20 = type: functional, cell-based, Homo sapiens; conditions: Homo sapiens, BT-20;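 further: cell viability assay measuring suppression of growth in human BT-20 cells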
Description: SANGER: Inhibition of human BT-20 cell growth in a cell viability assay.

C3A = type: functional, cell-based, Homo sapiens; conditions: Homo sapiens, C3A;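 further: growth inhibition of C3A human cells, quantified with a cell viability readout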
Description: SANGER: Inhibition of human C3A cell growth in a cell viability assay.

CAKI-1 = type: functional, cell-based, Homo sapiens; conditions: Homo sapiens, CAKI-1;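 further: growth inhibition of CAKI-1 cells, measured by a cell viability assay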
Description: SANGER: Inhibition of human CAKI-1 cell growth in a cell viability assay.

CAL-12T = type: functional, cell-based, Homo sapiens; conditions: Homo sapiens, CAL-12T;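 further: growth inhibition of human CAL-12T cells, read out with a cell viability assay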
Description: SANGER: Inhibition of human CAL-12T cell growth in a cell viability assay.

U2OS = type: functional, cell-based, Homo sapiens, U-2-OS; conditions: Homo sapiens, U2OS;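 further: growth inhibition of human U-2-OS cells, determined with a cell viability assay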
Description: SANGER: Inhibition of human U-2-OS cell growth in a cell viability assay.

U-251 = type: functional, cell-based, Homo sapiens; conditions: Homo sapiens, U-251;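 further: growth inhibition of human U-251 cells, read out through a cell viability assay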
Description: SANGER: Inhibition of human U251 cell growth in a cell viability assay.

MKN-28 = type: functional, cell-based, Homo sapiens; conditions: Homo sapiens, MKN-28;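 further: cell viability assay read-out, IC50 reflects suppression of growth of human MKN-28 cells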
Description: SANGER: Inhibition of human MKN28 cell growth in a cell viability assay.

NCI-H2030 = type: functional, cell-based, Homo sapiens; conditions: Homo sapiens, NCI-H2030;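 further: growth inhibition of human NCI-H2030 cells, read out by a cell viability assay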
Description: SANGER: Inhibition of human NCI-H2030 cell growth in a cell viability assay.

SW13 = type: functional, cell-based, Homo sapiens; conditions: Homo sapiens, SW13;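 further: IC50 is inhibition of SW13 cell growth, read out with a cell viability assay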
Description: SANGER: Inhibition of human SW13 cell growth in a cell viability assay.

Structure (SMILES)	IC50 (DBTRG-05MG)	IC50 (Daoy)	IC50 (EPLC-272H)	IC50 (EW-22)	IC50 (GCT)	IC50 (KYSE-70 cell line)	IC50 (LK-2)	IC50 (LU-99A)	IC50 (M059J)	IC50 (NCI-H1793)	IC50 (NCI-H460)	IC50 (NCI-H650)	IC50 (OVCAR-5)	IC50 (PANC-03-27)	IC50 (RD)	IC50 (SCC-25)	IC50 (SJRH30)	IC50 (SK-N-AS)	IC50 (SKG-IIIa)	IC50 (SW1088)	also measured
Cn1cnc2c(F)c(Nc3ccc(Br)cc3Cl)c(C(=O)NOCCO)cc21 [SELUMETINIB]	> 4 µM	> 4 µM	> 4 µM	> 4 µM	> 4 µM	> 4 µM	> 4 µM	> 4 µM	> 4 µM	> 4 µM	2.8 µM	> 4 µM	> 4 µM	> 4 µM	> 4 µM	> 4 µM	> 4 µM	0.0928 µM	> 4 µM	> 4 µM	IC50 (SW626): > 4 µM; IC50 (SW780): 0.666 µM; IC50 (T-24): > 4 µM; IC50 (A673): > 4 µM; IC50 (AU565): > 4 µM; IC50 (BT-20): > 4 µM; IC50 (C3A): > 4 µM; IC50 (CAKI-1): > 4 µM; IC50 (CAL-12T): > 4 µM; IC50 (U2OS): > 4 µM; IC50 (U-251): > 4 µM
Cc1cn(-c2cc(NC(=O)c3ccc(C)c(Nc4nccc(-c5cccnc5)n4)c3)cc(C(F)(F)F)c2)cn1 [NILOTINIB]	> 2 µM	> 2 µM	> 2 µM	> 2 µM	> 2 µM	> 2 µM	> 2 µM	> 2 µM	> 2 µM	> 2 µM	> 2 µM	> 2 µM	> 2 µM	> 2 µM	> 2 µM	> 2 µM	> 2 µM	> 2 µM	> 2 µM	> 2 µM	IC50 (MKN-28): > 2 µM; IC50 (NCI-H2030): > 2 µM; IC50 (SW13): > 2 µM; IC50 (SW626): > 2 µM; IC50 (SW780): > 2 µM; IC50 (T-24): > 2 µM; IC50 (A673): > 2 µM; IC50 (AU565): > 2 µM; IC50 (BT-20): > 2 µM; IC50 (C3A): > 2 µM; IC50 (CAKI-1): > 2 µM; IC50 (CAL-12T): > 2 µM; IC50 (U2OS): > 2 µM; IC50 (U-251): > 2 µM
Nc1cccc2c1CN(C1CCC(=O)NC1=O)C2=O (stereo not given) [LENALIDOMIDE]	> 5 µM	> 5 µM	> 5 µM	> 5 µM	> 5 µM	> 5 µM	> 5 µM	> 5 µM	> 5 µM	> 5 µM	> 5 µM	> 5 µM	> 5 µM	> 5 µM	> 5 µM	> 5 µM	> 5 µM	> 5 µM	> 5 µM	> 5 µM	IC50 (MKN-28): > 5 µM; IC50 (NCI-H2030): > 5 µM; IC50 (SW13): > 5 µM; IC50 (SW626): > 5 µM; IC50 (SW780): > 5 µM; IC50 (T-24): > 5 µM; IC50 (A673): > 5 µM; IC50 (AU565): > 5 µM; IC50 (BT-20): > 5 µM; IC50 (C3A): > 5 µM; IC50 (CAKI-1): > 5 µM; IC50 (CAL-12T): > 5 µM; IC50 (U2OS): > 5 µM; IC50 (U-251): > 5 µM
CC(C)CCN1c2nc(Nc3cc(F)c(O)c(F)c3)ncc2N(C)C(=O)C1C (stereo not given)	> 5 µM	0.988 µM	4.18 µM	> 5 µM	2.31 µM	> 5 µM	> 5 µM	> 5 µM	3.71 µM	> 5 µM	> 5 µM	> 5 µM	> 5 µM	4.3 µM	3.43 µM	> 5 µM	> 5 µM	2.29 µM	> 5 µM	> 5 µM	IC50 (MKN-28): > 5 µM; IC50 (NCI-H2030): > 5 µM; IC50 (SW13): > 5 µM; IC50 (SW626): 4.9 µM; IC50 (SW780): > 5 µM; IC50 (T-24): > 5 µM; IC50 (A673): > 5 µM; IC50 (AU565): > 5 µM; IC50 (BT-20): > 5 µM; IC50 (C3A): > 5 µM; IC50 (CAKI-1): > 5 µM; IC50 (CAL-12T): 4.06 µM; IC50 (U2OS): > 5 µM; IC50 (U-251): 2.73 µM
CCN(CC)CCCCNc1ncc2cc(-c3cc(OC)cc(OC)c3)c(NC(=O)NC(C)(C)C)nc2n1 [PD-173074]	> 2 µM	> 2 µM	> 2 µM	> 2 µM	> 2 µM	> 2 µM	> 2 µM	> 2 µM	> 2 µM	> 2 µM	> 2 µM	> 2 µM	> 2 µM	> 2 µM	> 2 µM	> 2 µM	> 2 µM	> 2 µM	> 2 µM	> 2 µM	IC50 (MKN-28): > 2 µM; IC50 (NCI-H2030): > 2 µM; IC50 (SW13): > 2 µM; IC50 (SW626): > 2 µM; IC50 (SW780): > 2 µM; IC50 (T-24): > 2 µM; IC50 (A673): > 2 µM; IC50 (AU565): > 2 µM; IC50 (BT-20): > 2 µM; IC50 (C3A): > 2 µM; IC50 (CAKI-1): > 2 µM; IC50 (CAL-12T): > 2 µM; IC50 (U2OS): > 2 µM; IC50 (U-251): > 2 µM
COc1cc2c(Nc3ccc(NC(=O)c4ccccc4)cc3)ncnc2cc1OCCCN1CCOCC1	> 4 µM	> 4 µM	> 4 µM	3.18 µM	3.77 µM	> 4 µM	1.65 µM	> 4 µM	> 4 µM	> 4 µM	3.07 µM	> 4 µM	> 4 µM	> 4 µM	> 4 µM	> 4 µM	> 4 µM	> 4 µM	> 4 µM	> 4 µM	IC50 (MKN-28): > 4 µM; IC50 (NCI-H2030): > 4 µM; IC50 (SW13): > 4 µM; IC50 (SW626): > 4 µM; IC50 (SW780): 3.06 µM; IC50 (T-24): > 4 µM; IC50 (A673): > 4 µM; IC50 (AU565): > 4 µM; IC50 (BT-20): > 4 µM; IC50 (C3A): > 4 µM; IC50 (CAKI-1): > 4 µM; IC50 (CAL-12T): > 4 µM; IC50 (U2OS): > 4 µM; IC50 (U-251): > 4 µM
CO[C@H]1C[C@@H]2CC[C@@H](C)[C@@](O)(O2)C(=O)C(=O)N2CCCC[C@H]2C(=O)O[C@H]([C@H](C)C[C@@H]2CC[C@@H](OC(=O)C(C)(CO)CO)[C@H](OC)C2)CC(=O)[C@H](C)/C=C(\C)[C@@H](O)[C@@H](OC)C(=O)[C@H](C)C[C@H](C)/C=C/C=C/C=C/1C [TEMSIROLIMUS]	> 0.2 µM	0.0517 µM	> 0.2 µM	> 0.2 µM	> 0.2 µM	> 0.2 µM	> 0.2 µM	0.125 µM	0.118 µM	0.0457 µM	> 0.2 µM	> 0.2 µM	0.124 µM	> 0.2 µM	0.144 µM	> 0.2 µM	> 0.2 µM	0.127 µM	> 0.2 µM	0.0318 µM	IC50 (MKN-28): > 0.2 µM; IC50 (NCI-H2030): 0.0981 µM; IC50 (SW13): 0.186 µM; IC50 (SW626): > 0.2 µM; IC50 (SW780): 0.00483 µM; IC50 (T-24): 0.0139 µM; IC50 (A673): 0.161 µM; IC50 (AU565): > 0.2 µM; IC50 (BT-20): > 0.2 µM; IC50 (C3A): > 0.2 µM; IC50 (CAKI-1): 0.0687 µM; IC50 (CAL-12T): > 0.2 µM; IC50 (U2OS): 0.0702 µM; IC50 (U-251): > 0.2 µM
